Assay results from patent EP4714939A1, “SULFONAMIDE COMPOUND, PREPARATION METHOD THEREFOR, AND PHARMACEUTICAL USE THEREOF” (Shenzhen Salubris Pharmaceuticals Co., Ltd., priority 2023, dated 2024).

How the values were obtained:
in vivo = settings: cynomolgus monkey
From the text: (§1) Cynomolgus monkey: male, 3-6 kg, purchased from Guangzhou Huazhen biotechnology Co., Ltd. and Hainan Jingang Biotech Co., Ltd.

Lp(a) = assay: In-vitro Lp(a) assembly assay (cell-free, sandwich ELISA); format: biochemical; settings: inhibition of Lp(a) formation; HepG2 and HEK293 (human Apo(a), 17 Kringle repeats) conditioned media, 37°C, 2 hours; 4-parameter curve
Method: The capability of the compounds in the examples inhibiting the formation of Lp(a) particles in vitro was evaluated through cell-free assembly assay. After incubation at 37°C with 5% CO2 for 96 h, conditioned media (supplemented with 10% FBS, 20 mM HEPES, and 1 × penicillin/streptomycin DMEM) was collected from confluent wild-type HepG2 cells (source of endogenously expressed ApoB) and an HEK293 stable cell line expressing human Apo(a) protein containing 17 Kringle repeats (selected on 1 ug/ml puromycin). In-vitro assembly assay was performed by combining equal parts of HepG2 and HEK293 conditioned media with compounds under test added in a dilution series (final concentration being 0.03-1000 nM). A reaction was incubated at 37°C for 2 hours, and terminated by adding 6-aminocaproic acid (EACA) to a final concentration of 150 mM. Sandwich ELISA was used to detect Lp(a) using an anti-Apo(a) capture antibody (ab242565) and an HRP-conjugated anti-ApoB detection antibody (ab27622). ELISA was performed using TMB staining, and terminated with 1N sulfuric acid, and signals were read at 450 nm on an Envision 2104 plate reader. By setting an assembly reaction without inhibitors to 0% inhibition and an assembly reaction with the minimum amount of HepG2 conditioned medium (50-fold dilution) to 100% inhibition, the % inhibition of Lp(a) formed under each test condition was determined. Table 1 IC90 values of sulfonamide compounds

[1] = Pharmacokinetic experiment for monkeys; settings: Cynomolgus monkey, 5 mg/kg, p.o
From the text: as §1

Row | IC90 (Lp(a)) [nM] | Structure (SMILES) | also measured
1 | 45.8 | O=C(O)[C@@H](Cc1cccc(S(=O)(=O)N(Cc2ccc(F)c(C[C@H](C(=O)O)[C@H]3CCNC3)c2)Cc2ccc(F)c(C[C@H](C(=O)O)[C@H]3CCNC3)c2)c1)[C@H]1CCNC1 [Compound 9] | F [1]: 7.49%; AUC(0-t) (in vivo; po, 5 mg/kg): 22100 ng·h/mL; Cmax (in vivo; po, 5 mg/kg): 1690 ng/mL
2 | 17.7 | O=C(O)C(Cc1ccc(F)c(CN(Cc2cc(CC(C(=O)O)C3CCNC3)ccc2F)S(=O)(=O)c2ccc(F)c(CC(C(=O)O)C3CCNC3)c2)c1)C1CCNC1 [Compound 34, (2S,2'S)-3,3'-(((((3-((S)-2-carboxyl-2-((R)-pyrrolid-3-yl)ethyl)-4-fluorophenyl)sulfonyl)azadiyl)bis(methylenyl))bis(6-fluoro-3,1-phenylenyl))bis(2-((R)-pyrrolid-3-yl)propanoic acid)] | –
3 | 24.4 | O=C(O)[C@@H](Cc1cccc(S(=O)(=O)N(Cc2ccc(F)c(C[C@H](C(=O)O)[C@H]3CCNC3)c2)Cc2cc(C[C@H](C(=O)O)[C@H]3CCNC3)ccc2F)c1)[C@H]1CCNC1 [Compound 14] | –
4 | 21.6 | O=C(O)[C@@H](Cc1cc(CN(Cc2ccc(F)c(C[C@H](C(=O)O)[C@H]3CCNC3)c2)S(=O)(=O)c2ccc(Cl)c(C[C@H](C(=O)O)[C@H]3CCNC3)c2)ccc1F)[C@H]1CCNC1 [Compound 36, (2S,2'S)-3,3'-(((((3-((S)-2-carboxyl-2-((R)-pyrrolid-3-yl)ethyl)-4-chlorophenyl)sulfonyl)azadiyl)bis(methylenyl))bis(6-fluoro-3,1-phenylenyl))bis(2-((R)-pyrrolid-3-yl)propanoic acid)] | –

Second part, the molecule before the results:

Row | Structure (SMILES) | IC90 (Lp(a)) [nM] | also measured
5 | O=C(O)[C@@H](Cc1cccc(CN(CCc2ccccc2C[C@H](C(=O)O)[C@H]2CCNC2)S(=O)(=O)c2cccc(C[C@H](C(=O)O)[C@H]3CCNC3)c2)c1)[C@H]1CCNC1 [Compound 3] | 61 | AUC(0-t) (in vivo; iv, 0.5 mg/kg): 33300 ng·h/mL; half-life (in vivo; iv, 0.5 mg/kg): 1900 min
6 | O=C(O)[C@@H](Cc1cccc(CN(Cc2cccc(C[C@H](C(=O)O)[C@H]3CCNC3)c2)S(=O)(=O)c2cccc(C[C@H](C(=O)O)[C@H]3CCNC3)c2)c1)[C@H]1CCNC1 [Compound 1] | 49.9 | AUC(0-t) (in vivo; iv, 0.5 mg/kg): 41000 ng·h/mL; half-life (in vivo; iv, 0.5 mg/kg): 1260 min
7 | O=C(O)[C@@H](Cc1cccc(S(=O)(=O)N(CCc2ccccc2C[C@H](C(=O)O)[C@H]2CCNC2)Cc2ccc(F)c(C[C@H](C(=O)O)[C@H]3CCNC3)c2)c1)[C@H]1CCNC1 [Compound 24] | 25.8 | –
